{"source": "patent US6743789B2", "about": "“Substituted imidazo[1,5-a][1,2,4]triazolo[4,3-d][1,4]benzodiazepine derivatives” (Hoffmann-La Roche Inc., priority 2000, dated 2004)", "key": {"[1]": {"target": "T1, rat GABA A receptor α1β3γ2 (Rattus norvegicus, UniProt P18508+P62813)", "T1 construct": "expressed in transfected cells; host or cells: SF9 insect cells", "test": "[3H]flumazenil competition binding, GABA A α1β3γ2", "method": "(§1) The affinity of compounds at GABA A receptor subtypes was measured by competition for [^3H]flumazenil (85 Ci/mmol; Amersham) binding to SF9 cells expressing rat receptors of composition α1β3γ2, α2β3γ2, α3β3γ2 and α5β3γ2.\n(§2) Cellpellets were suspended in Krebs-tris buffer (4.8 mM KCl, 1.2 mM CaCl2, 1.2 mM MgCl2, 120 mM NaCl, 15 mM Tris; pH 7.5; binding assay buffer), homogenized by polytron for ca. 15 sec on ice and centrifuged in UZ for 30 min at 4° C. (100000 g; rotor: TFT 4594=300000 rpm). The cellpellets were resuspended in Krebs-tris buffer and homogenized by polytron for ca. 15 sec on ice. Aliquots of 1 ml were prepared, protein was measured (Bradford method) and the resulting membrane aliquots were stored at −70° C.\n(§3) Radioligand binding assays were carried out in a volume of 200 μL (96-well plates) which contained 100 μL of cells, [^3H]flumazenil at a concentration of 1 nM for α1α2α3 subunits and 0.5 nM for α5 subunits and the test compound in the range of\n(§4) 10^−10−3×10^−6 M. Nonspecific binding was defined by 10^−5 M diazepam and typically represented less than 5% of the total binding. Assays were incubated to equilibrium for 1 hour at 4° C. and harvested onto GF/C uni-filters (Packard) by filtration using a Packard harvester and washing with ice-cold wash buffer (50 mM Tris; pH 7.5). After drying, filter-retained radioactivity was detected by liquid scintillation counting. Ki values were calculated using Excel-Fit (Microsoft) and are the means of two determinations."}, "[2]": {"target": "T2, rat GABA A receptor α3β3γ2 (Rattus norvegicus, UniProt P18508+P20236)", "T2 construct": "expressed in transfected cells; host or cells: SF9 insect cells", "test": "[3H]flumazenil competition binding, GABA A α3β3γ2", "method": "as §1, §2, §3, §4"}, "[3]": {"target": "T3, rat GABA A receptor α2β3γ2 (Rattus norvegicus, UniProt P18508+P23576)", "T3 construct": "expressed in transfected cells; host or cells: SF9 insect cells", "test": "[3H]flumazenil competition binding, GABA A α2β3γ2", "method": "as §1, §2, §3, §4"}, "[4]": {"target": "T4, rat GABA A receptor α5β3γ2 (Rattus norvegicus, UniProt P18508+P19969)", "T4 construct": "expressed in transfected cells; host or cells: SF9 insect cells", "test": "[3H]flumazenil competition binding, GABA A α5β3γ2", "method": "as §1, §2, §3, §4"}, "[5]": {"conditions": "in vivo; cited from earlier work"}, "[6]": {"conditions": "McNamara and Skelton, Psychobiology 21:101-108; cited from earlier work"}, "[7]": {"conditions": "[3H]flumazenil 1 nM, SF9 cells expressing rat α1β3γ2, mean of two determinations, read-out: Ki[nM] ra1"}, "[8]": {"conditions": "[3H]flumazenil 1 nM, SF9 cells expressing rat α3β3γ2, mean of two determinations, read-out: Ki[nM] ra3"}, "[9]": {"conditions": "[3H]flumazenil 1 nM, SF9 cells expressing rat α2β3γ2, mean of two determinations, read-out: Ki[nM] ra2"}, "[10]": {"conditions": "[3H]flumazenil 0.5 nM, SF9 cells expressing rat α5β3γ2, mean of two determinations, read-out: Ki[nM] ra5"}}, "note": "Counter-ions that a name gives are not always drawn. Like-named read-outs stand apart in the source and are kept apart here.", "data": [{"molecule": "3-Chloro-10-(5-cyclopropyl-1,2,4-oxadiazol-3-yl)-7-(1H-indol-3-ylmethyl)-9H-imidazo[1,5-a][1,2,4]triazolo[4,3-d][1,4]benzodiazepine [Example 61]", "values": [{"measurement": "Ki", "setting": "[1]; [7]", "result": 67.3, "unit": "nM"}, {"measurement": "Ki", "setting": "[2]; [8]", "result": 18.9, "unit": "nM"}, {"measurement": "Ki", "setting": "[3]; [9]", "result": 53, "unit": "nM"}, {"measurement": "Ki", "setting": "[4]; [10]", "result": 1.3, "unit": "nM"}]}, {"molecule": "CCOC(=O)c1ncn2c1Cn1c(Cc3ccncc3)nnc1-c1cc(Cl)ccc1-2", "note": "(as salt: hydrochloride) [Example 69, Ethyl 3-chloro-7-(pyridin-4-ylmethyl)-9H-imidazo[1,5-a][1,2,4]triazolo[4,3-d][1,4]-benzodiazepine-10-carboxylate]", "values": [{"measurement": "melting point", "result": 213, "unit": "°C"}]}, {"molecule": "CCOC(=O)c1ncn2c1Cn1cnnc1-c1cc(OC)ccc1-2", "note": "[Example 1, Ethyl 3-methoxy-9H-imidazo[1,5-a][1,2,4]triazolo[4,3-d][1,4]-benzodiazepine-10-carboxylate]", "values": [{"measurement": "melting point", "result": 197, "unit": "°C"}, {"measurement": "Ki", "setting": "[1]", "result": 30.6, "unit": "nM"}, {"measurement": "Ki", "setting": "[2]", "result": 39.2, "unit": "nM"}, {"measurement": "Ki", "setting": "[3]", "result": 57.6, "unit": "nM"}, {"measurement": "Ki", "setting": "[4]; [10]", "result": 1.3, "unit": "nM"}]}, {"molecule": "Cc1ccc2c(c1)-c1nncn1Cc1c(-c3nc(C4CC4)no3)ncn1-2", "note": "[Example 6, 10-(3-Cyclopropyl-1,2,4-oxadiazol-5-yl)-3-methyl-9H-imidazo[1,5-a][1,2,4]triazolo[4,3-d][1,4]benzodiazepine]", "values": [{"measurement": "melting point", "result": "253 to 256", "unit": "°C"}, {"measurement": "Ki", "setting": "[1]; [7]", "result": 408, "unit": "nM"}, {"measurement": "Ki", "setting": "[2]; [8]", "result": 149, "unit": "nM"}, {"measurement": "Ki", "setting": "[3]; [9]", "result": 362, "unit": "nM"}, {"measurement": "Ki", "setting": "[4]", "result": 10.8, "unit": "nM"}]}, {"molecule": "CCOC(=O)c1ncn2c1Cn1cnnc1-c1cc(Cl)ccc1-2", "note": "[Example 13, Ethyl 3-chloro-9H-imidazo[1,5-a][1,2,4]triazolo[4,3-d][1,4]benzodiazepine-10-carboxylate]", "values": [{"measurement": "melting point", "result": "226 to 227", "unit": "°C"}, {"measurement": "Ki", "setting": "[1]", "result": 34.9, "unit": "nM"}, {"measurement": "Ki", "setting": "[2]", "result": 23.7, "unit": "nM"}, {"measurement": "Ki", "setting": "[3]", "result": 55.5, "unit": "nM"}, {"measurement": "Ki", "setting": "[4]; [10]", "result": 1.2, "unit": "nM"}]}, {"molecule": "CCOC(=O)c1ncn2c1Cn1c(C)nnc1-c1cc(OC)ccc1-2", "note": "[Example 19, Ethyl 3-methoxy-7-methyl-9H-imidazo[1,5-a][1,2,4]triazolo[4,3-d][1,4]-benzodiazepine-10-carboxylate]", "values": [{"measurement": "melting point", "result": 210, "unit": "°C"}, {"measurement": "Ki", "setting": "[1]", "result": 481, "unit": "nM"}, {"measurement": "Ki", "setting": "[2]", "result": 482, "unit": "nM"}, {"measurement": "Ki", "setting": "[3]", "result": 500, "unit": "nM"}, {"measurement": "Ki", "setting": "[4]; [10]", "result": 14.5, "unit": "nM"}]}, {"molecule": "CCOC(=O)c1ncn2c1Cn1c(CO)nnc1-c1cc(OC)ccc1-2", "note": "[Example 25, Ethyl 7-hydroxymethyl-3-methoxy-9H-imidazo[1,5-a][1,2,4]triazolo[4,3-d][1,4]-benzodiazepine-10-carboxylate]", "values": [{"measurement": "melting point", "result": 255, "unit": "°C"}, {"measurement": "Ki", "setting": "[1]", "result": 95.3, "unit": "nM"}, {"measurement": "Ki", "setting": "[2]; [8]", "result": 107, "unit": "nM"}, {"measurement": "Ki", "setting": "[3]; [9]", "result": 123, "unit": "nM"}, {"measurement": "Ki", "setting": "[4]", "result": 5.9, "unit": "nM"}]}, {"molecule": "CCOC(=O)c1ncn2c1Cn1c(Cc3c[nH]c4c(OC)cccc34)nnc1-c1cc(OC)ccc1-2", "note": "[Example 37, Ethyl 3-methoxy-7-[(7-methoxy-1H-indol-3-yl)methyl]-9H-imidazo[1,5-a][1,2,4]triazolo[4,3-d][1,4]-benzodiazepine-10-carboxylate]", "values": [{"measurement": "Ki", "setting": "[1]; [7]", "result": 296, "unit": "nM"}, {"measurement": "Ki", "setting": "[2]; [8]", "result": 162, "unit": "nM"}, {"measurement": "Ki", "setting": "[3]; [9]", "result": 266, "unit": "nM"}, {"measurement": "Ki", "setting": "[4]; [10]", "result": 8.2, "unit": "nM"}]}, {"molecule": "CCOC(=O)c1ncn2c1Cn1c(Cc3c[nH]c4ccccc34)nnc1-c1cc(Br)ccc1-2", "note": "[Example 47, Ethyl 3-bromo-7-(1H-indol-3-ylmethyl)-9H-imidazo[1,5-a][1,2,4]triazolo[4,3-d][1,4]-benzodiazepine-10-carboxylate]", "values": [{"measurement": "melting point", "result": "258 °C (dec.)"}, {"measurement": "Ki", "setting": "[1]; [7]", "result": 694, "unit": "nM"}, {"measurement": "Ki", "setting": "[2]; [8]", "result": 100, "unit": "nM"}, {"measurement": "Ki", "setting": "[3]; [9]", "result": 225, "unit": "nM"}, {"measurement": "Ki", "setting": "[4]", "result": 13.1, "unit": "nM"}]}, {"molecule": "CCOC(=O)c1ncn2c1Cn1c(Cc3cccc(OC)c3)nnc1-c1cc(Br)ccc1-2", "note": "[Example 50, Ethyl 3-bromo-7-(3-methoxy-benzyl)-9H-imidazo[1,5-a][1,2,4]triazolo[4,3-d][1,4]-benzodiazepine-10-carboxylate]", "values": [{"measurement": "melting point", "result": "111 to 113", "unit": "°C"}, {"measurement": "Ki", "setting": "[1]; [7]", "result": 1000, "unit": "nM"}, {"measurement": "Ki", "setting": "[2]; [8]", "result": 220, "unit": "nM"}, {"measurement": "Ki", "setting": "[3]; [9]", "result": 409, "unit": "nM"}, {"measurement": "Ki", "setting": "[4]", "result": 14.4, "unit": "nM"}]}, {"molecule": "CCOC(=O)c1ncn2c1Cn1c(Cc3ccc(-c4ccccc4)cc3)nnc1-c1cc(OC)ccc1-2", "note": "[Example 54, Ethyl 3-methoxy-7-[(biphenyl-4-yl)methyl]-9H-imidazo[1,5-a][1,2,4]triazolo[4,3-d][1,4]-benzodiazepine-10-carboxylate]", "values": [{"measurement": "Ki", "setting": "[1]", "result": 64.6, "unit": "nM"}, {"measurement": "Ki", "setting": "[2]; [8]", "result": 108, "unit": "nM"}, {"measurement": "Ki", "setting": "[3]; [9]", "result": 148, "unit": "nM"}, {"measurement": "Ki", "setting": "[4]", "result": 12.9, "unit": "nM"}]}, {"molecule": "Clc1ccc2c(c1)-c1nnc(Cc3ccccc3)n1Cc1c(-c3noc(C4CC4)n3)ncn1-2", "note": "[Example 63, 7-Benzyl-3-chloro-10-(5-cyclopropyl-1,2,4-oxadiazol-3-yl)-9H-imidazo[1,5-a][1,2,4]triazolo[4,3-d][1,4]benzodiazepine]", "values": [{"measurement": "Ki", "setting": "[1]", "result": 12.5, "unit": "nM"}, {"measurement": "Ki", "setting": "[2]", "result": 5.6, "unit": "nM"}, {"measurement": "Ki", "setting": "[3]", "result": 10.7, "unit": "nM"}, {"measurement": "Ki", "setting": "[4]; [10]", "result": 0.6, "unit": "nM"}]}, {"molecule": "CCOC(=O)c1ncn2c1Cn1c(Cc3ccncc3)nnc1-c1cc(Cl)ccc1-2", "note": "[Example 69, Ethyl 3-chloro-7-(pyridin-4-ylmethyl)-9H-imidazo[1,5-a][1,2,4]triazolo[4,3-d][1,4]-benzodiazepine-10-carboxylate]", "values": [{"measurement": "Ki", "setting": "[1]; [7]", "result": 360, "unit": "nM"}, {"measurement": "Ki", "setting": "[2]; [8]", "result": 158, "unit": "nM"}, {"measurement": "Ki", "setting": "[3]; [9]", "result": 308, "unit": "nM"}, {"measurement": "Ki", "setting": "[4]", "result": 7, "unit": "nM"}]}, {"molecule": "COC(=O)c1cc2c(cn1)[nH]c1ccccc12", "note": "[β-CCM]", "values": [{"measurement": "proconvulsant or convulsant activity", "setting": "[5]", "result": "proconvulsant or convulsant"}, {"measurement": "spatial learning in the Morris watermaze", "setting": "[6]", "result": "enhance spatial learning"}]}, {"molecule": "Ethyl 3-methoxy-7-(1H-indol-3-ylmethyl)-9H-imidazo[1,5-a][1,2,4]triazolo[4,3-d][1,4]-benzodiazepine-10-carboxylate [Example 20]", "values": [{"measurement": "Ki", "setting": "[1]; [7]", "result": 803, "unit": "nM"}, {"measurement": "Ki", "setting": "[2]; [8]", "result": 191, "unit": "nM"}, {"measurement": "Ki", "setting": "[3]; [9]", "result": 284, "unit": "nM"}, {"measurement": "Ki", "setting": "[4]; [10]", "result": 10.7, "unit": "nM"}]}]}
